Where two headings read alike, the source gives them in different places.
How the values were obtained:
[1] = target: T1, BK receptors in human ciliary muscle cells (h-CM) (Homo sapiens, UniProt P30411); assay: Functional assay measuring [Ca2+]i mobilization (FLIPR) in h-CM cells; assay type: cell-based; settings: class symbols (in μM), read-out: CaM (EC50)
T1 construct: h-CM cells expressing BK receptors were seeded; endogenous in cells; host or cells: human ciliary muscle (h-CM) cells
T1 sequence (P30411 1-391): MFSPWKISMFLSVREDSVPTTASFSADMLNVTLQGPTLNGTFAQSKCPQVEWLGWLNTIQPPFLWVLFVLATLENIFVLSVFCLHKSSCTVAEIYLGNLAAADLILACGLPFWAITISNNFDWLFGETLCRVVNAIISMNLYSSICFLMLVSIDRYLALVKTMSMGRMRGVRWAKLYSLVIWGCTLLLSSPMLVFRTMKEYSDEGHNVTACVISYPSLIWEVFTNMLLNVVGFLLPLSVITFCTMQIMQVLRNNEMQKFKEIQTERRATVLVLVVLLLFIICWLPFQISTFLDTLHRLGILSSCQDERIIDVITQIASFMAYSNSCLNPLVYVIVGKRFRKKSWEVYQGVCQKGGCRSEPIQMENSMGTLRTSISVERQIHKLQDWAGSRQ
Description: On the day of the experiment, media was removed, cells were rinsed and 50 μL of serum-free media added. One vial of FLIPR Calcium Assay Kit dye was reconstituted in 50 mL of a FLIPR buffer consisting of Hank's Balanced Salt Solution (HBSS), 20 mM HEPES, and 2.5 mM probenecid, pH 7.4. Cells were loaded with the calcium-sensitive dye by addition of an equal volume (50 μL) to each well of the 96-well plate and incubated with dye for 1 h at 23° C. […] After this time, the test compound plate and cell plate were placed in a Fluorescence Imaging Plate Reader (FLIPR-Tetra®) instrument (Molecular Devices/MDSPharma, Sunnyvale, Calif.). At the beginning of an experimental run, a signal test was performed to check the basal fluorescence signal from the dye-loaded cells and the uniformity of the signal across the plate. […] An aliquot (25 μL) of the test compound was added to the existing 100 μL dye-loaded cells at a dispensing speed of 50 μL/sec. Intracellular calcium mobilization was measured by monitoring real-time changes in cellular fluorescence upon test compound addition. Fluorescence data were collected in real-time at 1.0 sec intervals for the first 60 seconds and at 6.0 second intervals for an additional 120 seconds. Baseline fluorescence readings were normalized across the plate and background-corrected from negative control wells. […] EC50 values were determined by 4-parameter nonlinear curve fitting of the concentration-response curve. Calibration of the instrument was performed using manufacturer's standard procedures.

[2] = target: T2, recombinant human bradykinin B2 receptor (Homo sapiens, UniProt P30411); assay: [3H]-BK competition radioligand binding to human cloned B2 receptor (CHO cell membranes)
T2 construct: expressed in transfected cells; host or cells: Chinese hamster ovary (CHO) cells, membrane homogenates
T2 sequence (P30411 1-391): T1 sequence (P30411 1-391)
Description: Chinese hamster ovary (CHO) cell membrane homogenates (2.5 μg protein) expressing the recombinant human bradykinin B2 receptor were incubated for 60 min at 23° C. with 0.2 nM [^3H]-bradykinin (95.5 Ci/mmole, PerkinElmer) in the absence or presence of the test compound in a buffer containing 50 mM Tris/HCl (pH 7.4), 0.2 g/L 1-10-phenanthroline and 0.1% BSA. All reagent and test compound additions to the assay plates were made using Biomek 3000 robotic workstations (Beckman Instruments, Fullerton, Calif.). Nonspecific binding was determined in the presence of 1 μM unlabeled bradykinin. Following the incubation, the assay was terminated by rapid filtration under vacuum through glass fiber filters (GF/C, PerkinElmer) presoaked with 0.3% polyethyleneimine and rinsed several times with an ice-cold 50 mM Tris-HCl buffer using a 96-sample cell harvester (Tomtec). The filters were air-dried and the radioactivity counted in a beta-scintillation counter (Topcount, PerkinElmer) using a scintillation cocktail (Microscint 20, PerkinElmer) (Sharif and Whiting, Neurochem. Int. 18: 89-96, 1991). Competitive binding inhibition curves were generated using a 7-point concentration—response of test compound in duplicate. Bradykinin peptide was also tested as an internal control in the assay. The data were analyzed using nonlinear, iterative curve-fitting to obtain the potency and intrinsic activities of the test agents as previously described (Sharif et al. J. Pharmacol. Exp. Ther. 286: 1094-1102, 1998; Sharif et al. Invest Ophthalmol. Vis. Sci. 39:2562-2571, 1998; Kelly et al. J. Pharmacol. Exp. Ther. 304: 238-245, 2003). Determined IC50 values were converted to Ki values using the standard Cheng-Prusoff equation.

[3] = system: primary human ciliary muscle cells (h-CM); assay: Total prostaglandin (PG) release from primary h-CM cells (EIA); assay type: cell-based; settings: 1 hour at 37° C., class symbols (in μM)
Description: BK agonist compounds of Formula 1 were evaluated for the ability to induce prostaglandin (PG) release from primary human ciliary muscle cells (h-CM). Briefly, h-CM cells were grown to confluence in FNC-coated 24-well culture plates and serum-starved (0.8% FBS) for 24 hours prior to the experiment. Cells were stimulated with a 9-pt concentration-response (0.1 nM-10 μM) of bradykinin or BK agonist for 1 hour at 37° C. with subsequent sample recovery and processing for total PG measurement. Total PG measurement was determined using a total Prostaglandin Screening EIA kit (cat#514012) purchased from Cayman Chemical (Ann Arbor, Mich.). The assay was conducted according to the package insert from the manufacturer.

[4] = 0.2 nM [3H]-bradykinin, CHO membranes, 60 min 23° C., mean ± SEM or single value, Ki from IC50 by Cheng-Prusoff, read-out: [3H]-BK Binding to Human Cloned B2 Receptor (Ki)
[5] = same assay as E1, given as class symbols (in μM), read-out: [3H]-BK Binding to Human Cloned B2 Receptor (Ki, nM), class symbols

Molecule: 3-(4-acetylpiperazin-1-yl)-N-(2-((2,4-dichloro-3-(((2-methoxy-1-(pyridin-2-ylmethyl)-1H-benzo[d]imidazol-4-yl)oxy)methyl)phenyl)(methyl)amino)-2-oxoethyl)propanamide [Compound 16]
- EC50 [1]: 0.1 to 1 µM
- Ki [2, 4]: 0.985 ± 0.473 µM
- Ki [2, 5]: 0.1 to 1 µM

Molecule: 4-(3-((2-((2,4-dichloro-3-(((2-methyl-4-(pyridin-2-ylmethoxy)quinolin-8-yl)oxy)methyl)phenyl)(methyl)amino)-2-oxoethyl)amino)-3-oxopropyl)-N-methylbenzamide [Compound 31]
- EC50 [3]: 0.1 to 1 µM
- EC50 [1]: < 0.1 µM

Molecule: 4-((2-((2-((3-(((2-methoxy-1-(pyridin-2-ylmethyl)-1H-benzo[d]imidazol-4-yl)oxy)methyl)-2,4-dimethylphenyl)(methyl)amino)-2-oxoethyl)amino)-2-oxoethyl)amino)-N-methylpiperidine-1-carboxamide [Compound 21]
- EC50 [1]: 0.1 to 1 µM
- Ki [2, 4]: 0.881 ± 0.263 µM
- Ki [2, 5]: 0.1 to 1 µM

Molecule: 5-(3-((2-((2,4-dichloro-3-(((2-methyl-4-((pyridin-2-ylmethyl)amino)quinolin-8-yl)oxy)methyl)phenyl)(methyl)amino)-2-oxoethyl)amino)-3-oxopropyl)-N-methylpicolinamide [Compound 49]
- EC50 [3]: 0.1 to 1 µM
- EC50 [1]: 0.1 to 1 µM

Molecule: COc1nc2c(OCc3c(Cl)ccc(N(C)C(=O)CNC(=O)CCc4ccc(NS(C)(=O)=O)nc4)c3Cl)cccc2n1Cc1ccccn1 [Compound 5, N-(2-((2,4-dichloro-3-(((2-methoxy-1-(pyridin-2-ylmethyl)-1H-benzo[d]imidazol-4-yl)oxy)methyl)phenyl)(methyl)amino)-2-oxoethyl)-3-(6-(methylsulfonamido)pyridin-3-yl)propanamide]
- EC50 [1]: 0.1 to 1 µM
- Ki [2, 4]: 0.071 ± 0.03 µM

Molecule: COC(=O)Nc1ccc(CCC(=O)NCC(=O)N(C)c2ccc(C)c(COc3cccc4c3nc(OC)n4Cc3ccccn3)c2C)cn1 [Compound 6]
- EC50 [1]: < 0.1 µM
- Ki [2, 4]: 0.01 ± 0.002 µM
- Ki [2, 5]: < 0.1 µM

Molecule: COc1nc2c(OCc3c(Cl)ccc(N(C)C(=O)CNC(=O)CN4CCOCC4)c3Cl)cccc2n1Cc1ccccn1 [Compound 14, N-(2,4-dichloro-3-(((2-methoxy-1-(pyridin-2-ylmethyl)-1H-benzo[d]imidazol-4-yl)oxy)methyl)phenyl)-N-methyl-2-(2-morpholinoacetamido)acetamide]
- EC50 [1]: 0.1 to 1 µM
- Ki [2, 4]: 0.197 µM

Molecule: COc1nc2c(OCc3c(Cl)ccc(N(C)C(=O)CNC(=O)CN4CCC(NC(C)=O)CC4)c3Cl)cccc2n1Cc1ccccn1 [Compound 15, 2-(2-(4-acetamidopiperidin-1-yl)acetamido)-N-(2,4-dichloro-3-(((2-methoxy-1-(pyridin-2-ylmethyl)-1H-benzo[d]imidazol-4-yl)oxy)methyl)phenyl)-N-methylacetamide]
- EC50 [1]: 0.1 to 1 µM
- Ki [2, 4]: 0.467 µM

Molecule: COc1nc2c(OCc3c(Cl)ccc(N(C)C(=O)CNC(=O)CCN4CCN(C(=O)N(C)C)CC4)c3Cl)cccc2n1Cc1ccccn1 [Compound 17]
- EC50 [1]: 0.1 to 1 µM
- Ki [2, 4]: 0.274 ± 0.069 µM

Molecule: COC(=O)N1CCN(CCC(=O)NCC(=O)N(C)c2ccc(Cl)c(COc3cccc4c3nc(OC)n4Cc3ccccn3)c2Cl)CC1 [Compound 18]
- EC50 [1]: 0.1 to 1 µM
- Ki [2, 4]: 0.239 ± 0.15 µM

Molecule: CCc1nc2c(OCc3c(Cl)ccc(N(C)C(=O)CNC(=O)CNC4CCN(C(=O)NC)CC4)c3Cl)cccn2c1C(O)c1ccccn1 (stereo not drawn) [Compound 23]
- EC50 [1]: > 1 µM
- Ki [2, 4]: 1.73 ± 0.428 µM

Molecule: CCc1nc2c(OCc3c(Cl)ccc(N(C)C(=O)CNC(=O)CCN4CCN(C(=O)NC)CC4)c3Cl)cccn2c1C(O)c1ccccn1 (stereo not drawn) [Compound 26]
- EC50 [1]: 0.1 to 1 µM
- Ki [2, 4]: 2.14 ± 0.223 µM

Molecule: CC(=O)Nc1ccc(CC(=O)NCC(=O)N(C)c2ccc(Cl)c(COc3cccc4c(OCc5ccccn5)cc(C)nc34)c2Cl)cc1 [Compound 50]
- EC50 [1]: 0.1 to 1 µM
- Ki [2, 4]: 0.015 µM

Molecule: COc1nc2c(OCc3c(C)ccc(N(C)C(=O)CNC(=O)CN4CCC(NC(C)=O)CC4)c3C)cccc2n1Cc1ccccn1 [Compound 51]
- EC50 [1]: 0.1 to 1 µM
- Ki [2, 4]: 0.701 µM

Molecule: CNC(=O)C1CCN(CC(=O)NCC(=O)N(C)c2ccc(C)c(COc3cccc4c3nc(OC)n4Cc3ccccn3)c2C)CC1 [Compound 52]
- EC50 [1]: 0.1 to 1 µM
- Ki [2, 4]: 0.0157 µM

Molecule: CNC(=O)CN1CCN(CC(=O)NCC(=O)N(C)c2ccc(Cl)c(COc3cccc4c3nc(OC)n4Cc3ccccn3)c2Cl)CC1 [Compound 53]
- EC50 [1]: 0.1 to 1 µM
- Ki [2, 4]: 0.34 µM

Molecule: COc1nc2c(OCc3c(Cl)ccc(N(C)C(=O)CNC(=O)CCN4CCOCC4)c3Cl)cccc2n1Cc1ccccn1 [Compound 54]
- EC50 [1]: 0.1 to 1 µM
- Ki [2, 4]: 0.455 µM

Molecule: COc1nc2c(OCc3c(Cl)ccc(N(C)C(=O)CNC(=O)CCCN4CCN(C(C)=O)CC4)c3Cl)cccc2n1Cc1ccccn1 [Compound 55]
- EC50 [1]: 0.1 to 1 µM
- Ki [2, 4]: 0.984 µM

Molecule: COc1nc2c(OCc3c(Cl)ccc(N(C)C(=O)CNC(=O)CCN4CCNCC4)c3Cl)cccc2n1Cc1ccccn1 [Compound 58]
- EC50 [1]: > 1 µM
- Ki [2, 4]: 3.15 µM

Molecule: CCc1nc2c(OCc3c(Cl)ccc(N(C)C(=O)CNC(=O)CCN4CCN(C(=O)NC)CC4)c3Cl)cccn2c1C(O)c1ccccn1 (stereo not drawn) [Compound 59]
- EC50 [1]: 0.1 to 1 µM
- Ki [2, 4]: 2.14 µM

Molecule: CCc1nc2c(OCc3c(C)ccc(N(C)C(=O)CNC(=O)CCN4CCN(C(=O)NC)CC4)c3C)cccc2n1Cc1ccccn1 [Compound 60]
- EC50 [1]: 0.1 to 1 µM

Molecule: N=C(N)NCCC[C@H](NC(=O)[C@H](Cc1ccccc1)NC(=O)[C@@H]1CCCN1C(=O)[C@H](CO)NC(=O)[C@H](Cc1ccccc1)NC(=O)CNC(=O)[C@@H]1C[C@@H](O)CN1C(=O)[C@@H]1CCCN1C(=O)[C@@H](N)CCCNC(=N)N)C(=O)O [Hyp^3-BK, reference compound]
- Ki [2]: 0.0019 ± 0.0011 µM
- Ki ([2]; [3H]-BK Binding to Human Cloned B2 Receptor (Ki, nM), class symbols, same assay as E1, given as class symbols (in μM)): < 0.1 µM

Molecule: NCCCC[C@H](N)C(=O)N[C@@H](CCCN=C(N)N)C(=O)N1CCC[C@H]1C(=O)N1CCC[C@H]1C(=O)NCC(=O)N[C@@H](Cc1ccccc1)C(=O)N[C@@H](CO)C(=O)N1CCC[C@H]1C(=O)N[C@@H](Cc1ccccc1)C(=O)N[C@@H](CCCN=C(N)N)C(=O)O [Lys-BK, reference compound]
- Ki [2, 5]: < 0.1 µM

Molecule: CSCC[C@H](N)C(=O)N[C@@H](CCCCN)C(=O)N[C@@H](CCCNC(=N)N)C(=O)N1CCC[C@H]1C(=O)N1CCC[C@H]1C(=O)NCC(=O)N[C@@H](Cc1ccccc1)C(=O)N[C@@H](CO)C(=O)N1CCC[C@H]1C(=O)N[C@@H](Cc1ccccc1)C(=O)N[C@@H](CCCNC(=N)N)C(=O)O [Met-Lys-BK, reference compound]
- Ki [2, 5]: < 0.1 µM
